pIC50: −log10 of the molar value.
Biological target: hBPGM (Homo sapiens (Human), UniProt P07738)
Test: BPGM Synthase Assay
Type: biochemical
Conditions: Table 6 additional results; read-out: huBPGM: synthase Enzyme IC50
Procedure: Example B1. BPGM Synthase Assay
The following materials were used in this assay: deionized water; Bisphosphoglycerate mutase (BPGM; Standard Buffer: 50 mM Tris, 0.01% Tween 20, pH 7.4); BPGM Reaction Buffer (50 mM Tris, 0.01% Tween 20, 3.23 mM KH2PO4, pH 7.4); dithiothreitol (DTT; Stock solution: 100 mM in Standard Buffer); 384-Well Black Assay Plate (Corning, P/N 3575); DMSO; BPGM Stock Solution (500 nM in BPGM Standard Buffer); Glyceraldehyde 3-phosphate dehydrogenase (GAPDH; Stock Solution: 40 U/mL in 20 mM Tris-HCL Buffer with 20% Glycerol, 1 mM EDTA, 1 mM DTT); Glyceraldehyde 3-phosphate (GAP; Stock Solution: 20 mM in BPGM Standard Buffer); 3-PG Stock Solution (500 μM in BPGM Standard Buffer); Nicotinamide adenine dinucleotide (NAD; Stock Solution: 50 mM in BPGM Standard Buffer); Koningic Acid (1 mM Stock in DMSO); Resazurin Stock Solution (10 mM in DMSO); Diaphorase Stock Solution (40 U/mL in BPGM Standard Buffer); DTT Reaction Buffer (1 mM DTT in BPGM Reaction Buffer); Enzyme Solution (5 nM BPGM, 0.4 U/mL GAPDH in DTT Reaction Buffer); GAPDH Solution (0.4 U/mL GAPDH in DTT Reaction Buffer); Substrate Solution (2 mM NAD, 20 μM 3PG, 800 μM GAP in DTT Reaction Buffer); and Resazurin Solution (5 U/mL Diaphorase, 500 μM Resazurin in BPGM Standard Buffer).
To the assay plate was added Enzyme Solution (20 uL) to columns 2-22 and 24 of the assay plate. To columns 1 and 23 was added GAPDH Solution (20 uL). A separate compound plate was prepared at the desired concentrations and all wells were normalized with 5% DMSO. The compound plate was incubated for 30 minutes at RT. Next, the substrate solution (20 μL) was dispensed to all reaction wells and the plate was incubated for 60 minutes at RT. Koningic acid (1 μL) was added and the plate was incubated for 10 minutes at RT. During this time period, the NADH fluorescence was read at ex: 360/em: 460. Next, Resazurin Solution (10 μL) was added to all reaction wells and the plate was incubated for 30 minutes at RT. The resorufin fluorescence was then read at ex:544/em:590.

Sequence of hBPGM (P07738 whole entry, looked up): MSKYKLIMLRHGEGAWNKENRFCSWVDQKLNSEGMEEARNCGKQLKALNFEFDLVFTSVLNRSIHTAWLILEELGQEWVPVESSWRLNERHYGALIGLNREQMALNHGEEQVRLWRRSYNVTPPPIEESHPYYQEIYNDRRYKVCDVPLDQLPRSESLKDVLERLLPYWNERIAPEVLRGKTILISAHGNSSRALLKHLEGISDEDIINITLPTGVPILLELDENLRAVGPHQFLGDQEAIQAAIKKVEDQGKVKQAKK

SMILES | pIC50
Cc1nc(Cn2cc(C(F)(F)F)cn2)sc1-c1cccc(-c2ccc(C(=O)O)cc2)n1 [Example 60] | 6.12
Cc1nc(C)c(-c2ccn(-c3ccc(C(=O)O)c(O)c3)n2)s1 [Example 288] | 5.42
Cc1nc(C)c(-c2cccc(-c3ccc(C(=O)O)c(C(F)(F)F)c3)c2)s1 [Example 314] | 4.00
Cc1nc(CO)sc1-c1cccc(-c2ccc(C(=O)NCC(=O)N3CCC(C(=O)O)CC3)cc2)n1 [Example 89] | < 4.60
Cc1nc(COc2ccc(C(F)(F)F)nn2)sc1-c1cccc(-c2ccc(C(=O)O)cc2)n1 [Example 48] | 5.72
Cc1nc(C)c(-c2csc(-c3ccc(C(=O)O)c(O)c3)n2)s1 [Example 315] | 5.85
Cc1nc(C)c(CCOc2ccc(C(=O)O)c(O)c2)s1 [Example 336] | < 4.60
Cc1nc(COc2ncccn2)sc1-c1ccnc(-c2ccc(C(=O)O)cc2)c1 [Example 23] | 4.77
Cc1nc(C)c(-c2cc(-c3ccc(C(=O)O)cc3)ccc2O)s1 [Example 301] | < 3.60
Cc1nc(C)c(-c2cc(-c3ccc(C(=O)O)cc3)ccc2C)s1 [Example 307] | < 3.60
CCc1nc(C)c(-c2cccc(-c3ccc(C(=O)O)c(O)c3)c2)s1 [Example 323] | 5.80
Cc1nc(CCc2ccccc2)sc1-c1cccc(-c2ccc(C(=O)O)c(O)c2)c1 [Example 109] | 5.09
Cc1nc(COc2ccc(F)cn2)sc1-c1cccc(-c2ccc(C(=O)O)c(O)c2)n1 [Example 26] | 6.37
Cc1nc(CNC(=O)C(C)(C)C)sc1-c1cccc(-c2cc(O)c(C(=O)O)cc2F)n1 [Example 150] | 6.30
Cc1nc(Cc2cccc(C(F)(F)F)c2)sc1-c1cccc(-c2ccc(C(=O)O)c(O)c2)c1 [Example 317] | 5.52
Cc1nc(CC2CCCCC2)sc1-c1cccc(-c2ccc(C(=O)O)c(O)c2)c1 [Example 313] | 5.04
Cc1ccc(C#N)c(OCC(=O)N2CC(c3cccc(-c4ccc(C(=O)O)cc4)c3)C2)n1 [Example 322] | < 3.60
Cc1ncc(-c2cccc(-c3ccc(C(=O)O)c(O)c3)c2)s1 [Example 325] | 5.46
Cc1nc(Cc2ccccn2)sc1-c1cccc(-c2ccc(C(=O)O)cc2)c1 [Example 287] | 6.04
Cc1nc(C)c(-c2cccc(-c3ccc(O)c(C(=O)O)c3)c2)s1 [Example 318] | 5.32

SMILES | pIC50
Cc1nc(COCc2ccccn2)sc1-c1csc(-c2cc(O)c(C(=O)O)cc2F)n1 [Example 144] | 6.70
Cc1nc(COc2ncccn2)sc1-c1cccc(-c2ccc(C(=O)O)o2)n1 [Example 33] | 4.96
Cc1nc(COc2ncccn2)sc1-c1cccc(-c2ccc3c(C(=O)O)c[nH]c3c2)n1 [Example 334] | 5.77
Cc1nc(COc2ncccn2)sc1-c1cccc(-c2cc(C(=O)O)co2)n1 [Example 39] | 4.74
Cc1nc(C)c(COc2ccc(C(=O)O)c(O)c2)s1 [Example 338] | < 4.60
Cc1nc(COc2ccc(F)cn2)sc1-c1cnn(-c2ccc(C(=O)O)c(O)c2)c1 [Example 20] | 5.68
Cc1nc(CC(F)(F)F)sc1-c1cccc(-c2ccc(C(=O)O)c(O)c2)c1 [Example 292] | 5.24
Cc1ccc(C#N)c(OCCn2cc(-c3cccc(-c4ccc(C(=O)O)c(O)c4)c3)c(C)n2)n1 [Example 330] | 5.18
Cc1ccc(C#N)c(OCCn2cc(-c3cccc(-c4ccc(C(=O)O)c(O)c4)c3)cn2)n1 [Example 111] | 4.82
COC(=O)NCc1ccc(-c2csc(-c3cc(O)c(C(=O)O)cc3F)n2)cn1 [Example 187] | 5.77
O=C(O)c1ccc(-c2nc(-c3ccnc(CO)c3)cs2)cc1 [Example 38] | < 4.60
Cc1nc(COc2ccccn2)sc1-c1ccc(-c2ccc(C(=O)O)c(O)c2)s1 [Example 340] | 5.44
Cc1nc(CO)sc1-c1cccc(-c2ccc(C(=O)NCC(=O)N3CCC(C(=O)O)C3)cc2)n1 (stereo not drawn) [Example 92] | < 4.60
COC(=O)NCc1ccc(-c2csc(-c3cc(O)c(C(=O)O)cc3F)n2)c(C)n1 [Example 206] | 5.70
Cc1nc(COc2ncccn2)sc1-c1nc(-c2ccc(C(=O)O)cc2)cs1 [Example 34] | 6.47
Cc1nc(COC2CCCCO2)sc1-c1cccc(-c2ccc(C(=O)O)cc2)n1 (stereo not drawn) [Example 55] | 6.42
Cc1nc(COc2ncccn2)sc1-c1cccc(-c2ccc(C(=O)NC(CC(=O)O)c3ccccc3)cc2)n1 (stereo not drawn) [Example 35] | 5.59
Cc1nc(COc2ncccn2)sc1-c1cccc(-c2ccc(C(=O)N3CCC(OCC(=O)O)CC3)cc2)n1 [Example 84] | < 4.60
Cc1nc(COc2ccc(C(F)(F)F)nc2)sc1-c1cccc(-c2ccc(C(=O)O)cc2)n1 [Example 61] | 5.89
Cc1nc(COc2ccc(F)cn2)sc1-c1ccn(-c2ccc(C(=O)O)c(C(F)F)c2)n1 [Example 17] | 6.05

SMILES | pIC50
Cc1nc(C)c(/C=C/c2ccc(C(=O)O)c(O)c2)s1 [Example 333] | 4.96
COC(=O)NCc1nc(C)c(-c2csc(-c3ccc(C(=O)NS(=O)(=O)c4cccc(OCC(=O)O)c4)cc3)n2)s1 [Example 331] | < 4.60
CN(C)C(=O)OCC1CCN(c2cccc(-c3ccc(C(=O)O)cc3)n2)CC1 [Example 25] | < 4.60
Cc1nc(C)c(-c2cc(-c3ccc(C(=O)O)c(O)c3)ccn2)s1 [Example 293] | 5.03
Cc1nc(C)c(-c2cccc(-c3ccc(C(=O)O)c(O)c3)c2)s1 [Example 329] | 5.64
Cc1ccc(C#N)c(OCC(=O)N2CCC(c3cccc(-c4ccc(C(=O)O)c(O)c4)c3)C2)n1 (stereo not drawn) [Example 328] | 4.35
Cc1nc(COCC(C)(C)O)sc1-c1cccc(-c2ccc(C(=O)O)c(O)c2)c1 [Example 335] | 6.51
Cc1nc(OCC2CCCCO2)sc1-c1cccc(-c2ccc(C(=O)O)cc2)n1 (stereo not drawn) [Example 41] | 4.72
Cc1nc(COc2ncccn2)sc1-c1cccc(-c2ccc(C(=O)N[C@@H](C(=O)O)c3ccccc3)cc2)n1 [Example 36] | 5.57
Cc1nc(C)c(-c2cccc(-c3ccc(C(=O)O)cc3)c2)s1 [Example 326] | 5.19
Cc1nc(COc2ncccn2)sc1-c1cccc(-c2cc(C(=O)O)nn2C)n1 [Example 27] | 5.13
COC(=O)NCc1nc(C)c(-c2csc(-c3cc(N)c(C(=O)O)cc3F)n2)s1 [Example 195] | 5.92
COC(=O)NCc1cc(C)c(-c2csc(-c3cc(O)c(C(=O)O)cc3F)n2)s1 [Example 179] | 6.22
Cc1nc(COc2ncccn2)sc1-c1cccc(-c2ccc(C(=O)O)c(C(=O)O)c2)n1 [Example 70] | 4.96
Cc1nc(COC2CCOC2)sc1-c1cccc(-c2ccc(C(=O)O)cc2)c1 (stereo not drawn) [Example 44] | 5.72
CC(=O)NCCc1nc(C)c(-c2cccc(-c3ccc(C(=O)O)c(O)c3)c2)s1 [Example 258] | 4.96
Cc1nc(CNC(=O)C(C)(C)C)sc1-c1cccc(-c2ccc(C(=O)O)cc2)n1 [Example 62] | 5.74
O=C(O)c1ccc(-c2nc(-c3ccnc(COc4ncccn4)c3)cs2)cc1 [Example 37] | 5.12
Cc1nc(CN2CCCCC2)sc1-c1cccc(-c2ccc(C(=O)O)c(O)c2)c1 [Example 298] | 5.30
Cc1nc(C(=O)O)sc1-c1cccc(-c2cc(F)c3[nH]nnc3c2F)n1 [Example 342] | 5.72

— patent publication US20230348450A1, “CARBOXYLIC ACID-CONTAINING COMPOUNDS AS MODULATORS OF BIS-PHOSPHOGLYCERATE MUTASE FOR THE TREATMENT OF SICKLE CELL DISEASE” (Genzyme Corporation, priority 2020, published 2023)
